Values quoted from earlier work, collected in patent US7402578B2, “Methods for inhibiting cognitive deterioration in adults with down's syndrome” (Corcept Therapeutics, Inc., priority 2001, dated 2008).

Legend:
[1] = in one study (Kawai)
[2] = tested on: cognitive function in DS children; conditions: Lobaugh et al. 2001

Row | SMILES | fraction of the daily dose excreted in the urine [1] | enhancement of cognitive function [2]
1 | CC#C[C@]1(O)CC[C@H]2[C@@H]3CCC4=CC(=O)CCC4=C3[C@@H](c3ccc(N(C)C)cc3)C[C@@]21C [Mifepristone, 17-beta-hydroxy-11-beta-(4-dimethylaminophenyl)-17-alpha-(1-propynyl)-estra-4,9-dien-3-one] | less than 0.5% | 
2 | NC(=O)CN1CCCC1=O [Piracetam] |  | failed to enhance cognitive function
